Test results reported in patent publication US11059886B1, “Methods and compositions for treating inflammatory or autoimmune diseases or conditions using GRM8 activators” (Flagship Pioneering Innovations V, Inc., priority 2018, dated 2021).

System: M2-like macrophages
Experiment: IL-8 secretion by M-CSF-differentiated human monocyte-derived M2-like macrophages (LEGENDplex bead-based immunoassay of supernatant)
Assay type: cell-based
Conditions: M2-like macrophages from human CD14+ monocytes
Protocol: CD14+ monocytes were isolated from human PBMCs using negative magnetic bead selection (Stemcell Technologies) on day 0. Cells were cultured with M-CSF to differentiate monocytes to macrophages. On day 6, cells were treated with L-AP4 (selective group III metabotropic glutamate receptor agonist) (Sigma-Aldrich), at concentrations 1 μM and 10 μM overnight. Supernatant was collected and LEGENDplex™ bead-based immunoassays (Biolegend) were performed to detect for changes in cytokines secreted.
Secretion of the inflammatory cytokine, IL-8, was decreased with the addition of the mGluR8 agonist in M2-like macrophages, consistent across multiple donors, as shown in Table 15 below.

SMILES: NC(CCP(=O)(O)O)C(=O)O [L-AP4]
- Fold change of IL-8 (Normalized to M2-like Macs + LPS with no compound treatment) (L-AP4 1 μM overnight): 0.646 fold change
- Fold change of IL-8 (Normalized to M2-like Macs + LPS with no compound treatment) (L-AP4 10 μM overnight): 0.866 fold change
